Test results from US10865191B2, “Heterocyclic compounds useful as modulators of TNF alpha” (BRISTOL-MYERS SQUIBB COMPANY, priority 2015, dated 2020).

biological target: TNFα (Homo sapiens, UniProt P01375); assay: TNF induced HEK-Blue assay (NF-kB-driven secreted alkaline phosphatase reporter); assay type: cell-based; settings: TNF induced HEK-Blue assay IC50 value, TNFα 0.5 ng/mL, HEK-Blue-CD40L cells, 18 h
Method in brief: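 HEK-Blue-CD40L cells (NF-kB-driven SEAP reporter), 20,000/well, added after 30 min pre-incubation of compound (0.004–25 μM final) with TNFα 0.5 ng/mL final at 37 °C; 18 h incubation. SEAP read with QUANTI-Blue at 620 nm; IC50 from 4-parameter logistic fit, normalized to unstimulated and stimulated DMSO controls.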

Chain of TNFα (P01375 77-233 limits assumed): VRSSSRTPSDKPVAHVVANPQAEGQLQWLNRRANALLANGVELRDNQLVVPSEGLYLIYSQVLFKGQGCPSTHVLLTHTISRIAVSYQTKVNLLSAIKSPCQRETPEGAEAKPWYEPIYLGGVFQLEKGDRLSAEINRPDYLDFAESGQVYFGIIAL

Row | IC50 | SMILES
1 | < 1000 nM | Cc1ccc(C)c(Nc2c(Cl)c(C)nc3ccc(-c4cnc(C(C)(C)O)nc4)cc23)c1 [Example 1, 2-(5-(3-chloro-4-((2,5-dimethylphenyl)amino)-2-methylquinolin-6-yl)pyrimidin-2-yl)propan-2-ol]

same assay, conditions: TNFα 0.5 ng/mL, HEK-Blue-CD40L cells, 18 h; read-out: TNF induced HEK-Blue assay IC50 value

Row | IC50 | SMILES
2 | < 1000 nM | Cc1nc2ccc(-c3cnc(C(C)(C)O)nc3)cc2c(N[C@@H](c2cc(N3CCNC3=O)ccc2F)C(F)F)c1Cl [Example 372, (S)-1-(3-(1-((3-chloro-6-(2-(2-hydroxypropan-2-yl)pyrimidin-5-yl)-2-methylquinolin-4-yl)amino)-2,2-difluoroethyl)-4-fluorophenyl) imidazolidin-2-one]
3 | < 1000 nM | CC(C)(O)c1ncc(-c2ccc3ncc(Cl)c(NC(CCO)c4ccccc4F)c3c2)cn1 (racemic) [Example 167, 3-((3-chloro-6-(2-(2-hydroxypropan-2-yl)pyrimidin-5-yl)quinolin-4-yl)amino)-3-(2-fluorophenyl)propan-1-ol]
4 | < 1000 nM | Cc1nc2cc(F)c(-c3cnc(C(C)(C)O)nc3)nc2c(N[C@H](C)c2cccc(C(O)CO)c2)c1Cl (stereo partly drawn) [Example 575, 1-(3-((R)-1-((3-chloro-7-fluoro-6-(2-(2-hydroxypropan-2-yl)pyrimidin-5-yl)-2-methyl-1,5-naphthyridin-4-yl)amino)ethyl)phenyl)ethane-1,2-diol]
5 | < 1000 nM | CC(C)(O)c1ccc(-c2cc3c(N[C@@H](c4ccccc4F)C(F)F)c(Cl)cnc3cc2F)cn1 [Example 270, (S)-2-(5-(3-chloro-4-((2,2-difluoro-1-(2-fluorophenyl)ethyl)amino)-7-fluoroquinolin-6-yl)pyridin-2-yl)propan-2-ol]
6 | 1000 to 10000 nM | C[C@@H](Nc1c(Cl)cnc2cc(F)c(-c3cnc(C(C)(C)O)nc3)nc12)c1cc(C(=O)O)ccc1F [Example 579, (R)-3-(1-((3-chloro-7-fluoro-6-(2-(2-hydroxypropan-2-yl)pyrimidin-5-yl)-1,5-naphthyridin-4-yl)amino)ethyl)-4-fluorobenzoic acid]
7 | < 1000 nM | CC(Nc1c(Cl)cnc2cc(F)c(-c3ccc(C(O)C4CC4)cc3)cc12)c1ccccc1F (stereo not drawn) [Example 261, (4-(3-chloro-7-fluoro-4-((1-(2-fluorophenyl)ethyl)amino)quinolin-6-yl)phenyl)(cyclopropyl) methanol]
8 | < 1000 nM | C[C@@H](Nc1c(Cl)cnc2ccc(-c3cnc(C(C)(C)O)nc3)cc12)c1cccc(N2CCOCC2)c1 [Example 136, (R)-2-(5-(3-chloro-4-((1-(3-morpholinophenyl)ethyl)amino)quinolin-6-yl)pyrimidin-2-yl)propan-2-ol]
9 | 1000 to 10000 nM | CC(Nc1c(Cl)cnc2cc(F)c(-c3cnc(C(O)CN4CCOCC4)cn3)cc12)c1ccccc1F (stereo not drawn) [Example 276, 1-(5-(3-chloro-7-fluoro-4-((1-(2-fluorophenyl)ethyl)amino)quinolin-6-yl)pyrazin-2-yl)-2-morpholinoethan-1-ol]
10 | 1000 to 10000 nM | Cc1ccc(C)c(Nc2c(Cl)c(C)nc3ccc(-c4ccc(C(=O)NCCCCN)nc4)cc23)c1 [Example 65, N-(4-aminobutyl)-5-(3-chloro-4-((2,5-dimethylphenyl)amino)-2-methylquinolin-6-yl) picolinamide]
11 | < 1000 nM | CC(Nc1c(Cl)cnc2ccc(-c3ccc(C(C)(C)O)cc3)cc12)c1cscn1 (racemic) [Example 202, 2-(4-(3-chloro-4-((1-(thiazol-4-yl)ethyl)amino)quinolin-6-yl)phenyl)propan-2-ol]
12 | < 1000 nM | C[C@@H](Nc1c(Cl)cnc2ccccc12)c1cc(-c2cnc(N)nc2)ccc1F [Example 481, (R)—N-(1-(5-(2-aminopyrimidin-5-yl)-2-fluorophenyl)ethyl)-3-chloroquinolin-4-amine]
13 | < 1000 nM | CC(Nc1c(Cl)cnc2cc(F)c(-c3cnc(N4CCC(C(=O)O)CC4)nc3)cc12)c1ccccc1F (single isomer, unassigned) [Example 244, 1-(5-(3-chloro-7-fluoro-4-((1-(2-fluorophenyl)ethyl)amino)quinolin-6-yl)pyrimidin-2-yl)piperidine-4-carboxylic acid]
14 | < 1000 nM | CC(C)(O)c1ncc(-c2nc3c(N[C@H](c4cc(C#N)ccc4F)C(F)F)c(Cl)cnc3cc2F)cn1 [Example 489, (R)-3-(1-((3-chloro-7-fluoro-6-(2-(2-hydroxypropan-2-yl)pyrimidin-5-yl)-1,5-naphthyridin-4-yl)amino)-2,2-difluoroethyl)-4-fluorobenzonitrile]
15 | < 1000 nM | C[C@@H](Nc1c(Cl)cnc2ccccc12)c1cc(-c2cn[nH]c2)ccc1F [Example 455, (R)-3-chloro-N-(1-(2-fluoro-5-(1H-pyrazol-4-yl)phenyl)ethyl)quinolin-4-amine]
16 | 1000 to 10000 nM | Cc1ccc(C)c(Nc2c(Cl)c(C(=O)O)nc3ccc(-c4ccc(C#N)nc4)cc23)c1 [Example 31, 3-chloro-6-(6-cyanopyridin-3-yl)-4-((2,5-dimethylphenyl)amino)quinoline-2-carboxylic acid]
17 | < 1000 nM | OC[C@@H]1CN(c2ncc(-c3ccc4ncc(Cl)c(N[C@@H](c5ccccc5F)C(F)F)c4c3)cn2)CCN1 [Example 86, ((S)-4-(5-(3-chloro-4-(((S)-2,2-difluoro-1-(2-fluorophenyl)ethyl)amino)quinolin-6-yl)pyrimidin-2-yl)piperazin-2-yl)methanol]
18 | < 1000 nM | Cc1ccc(F)c(C(C)Nc2c(Cl)cnc3ccc(-c4cnc(N5CCNC(=O)C5)nc4)cc23)n1 (stereo not drawn) [Example 484, 4-(5-(3-chloro-4-((1-(3-fluoro-6-methylpyridin-2-yl)ethyl)amino)quinolin-6-yl)pyrimidin-2-yl)piperazin-2-one]
19 | < 1000 nM | C[C@@H](Nc1c(Cl)cnc2ccc(-c3cnc(C(C)(C)O)nc3)cc12)c1cc(C2=CCNCC2)ccc1F [Example 338, (R)-2-(5-(3-chloro-4-((1-(2-fluoro-5-(1,2,3,6-tetrahydropyridin-4-yl)phenyl)ethyl)amino)quinolin-6-yl)pyrimidin-2-yl)propan-2-ol]
20 | < 1000 nM | CCC(Nc1c(Cl)cnc2ccc(-c3ccc(C(C)(C)O)cc3)cc12)c1nc(C(N)=O)ccc1F (racemic) [Example 24, 6-(1-((3-chloro-6-(4-(2-hydroxypropan-2-yl)phenyl)quinolin-4-yl)amino)propyl)-5-fluoropicolinamide]
21 | < 1000 nM | Cc1nc2ccc(-c3cnc(C(C)(C)O)nc3)cc2c(N[C@H](C)c2cc(-c3cnn(C)c3)ccc2F)c1Cl [Example 344, (R)-2-(5-(3-chloro-4-((1-(2-fluoro-5-(1-methyl-1H-pyrazol-4-yl)phenyl)ethyl)amino)-2-methylquinolin-6-yl)pyrimidin-2-yl)propan-2-ol]
22 | 10000 to 25000 nM | CNc1ncc(-c2ccc3ncc(Cl)c(N[C@H](C)c4ccccc4F)c3c2)cn1 [Example 17, (R)-3-chloro-N-(1-(2-fluorophenyl)ethyl)-6-(2-(methylamino)pyrimidin-5-yl)quinolin-4-amine]
23 | < 1000 nM | CC(Nc1ncc(-c2ccc3ncc(Cl)c(N[C@H](C)c4ccccc4F)c3c2)cn1)C(N)=O (stereo partly drawn) [Example 591, 2-((5-(3-chloro-4-(((R)-1-(2-fluorophenyl)ethyl)amino)quinolin-6-yl)pyrimidin-2-yl)amino)propanamide]
24 | < 1000 nM | Cc1nc2ccc(-c3cnc(C(C)(C)O)nc3)cc2c(N[C@H](C)c2cc(NC(=O)OC(C)(C)C)ccc2F)c1Cl [Example 359, tert-Butyl (R)-(3-(1-((3-chloro-6-(2-(2-hydroxypropan-2-yl)pyrimidin-5-yl)-2-methylquinolin-4-yl)amino)ethyl)-4-fluorophenyl)carbamate]
